Assay results from ChEMBL document CHEMBL5465560, “Selectivity Literature for EUbOPEN Chemogenomic Library” (2024).

Legend:
[1] = molecular target: T1, Muscarinic acetylcholine receptor M2 (Homo sapiens) (UniProt P08172); assay: Selectivity interaction (Eurofins Cerep-Panlabs Safety Screen 44 (GPCRS, Transporters, Ion Channels, Nuclear Receptors, other enzymes)) EUB0000878a CHRM2; conditions: at 10 µM
T1 sequence (whole entry): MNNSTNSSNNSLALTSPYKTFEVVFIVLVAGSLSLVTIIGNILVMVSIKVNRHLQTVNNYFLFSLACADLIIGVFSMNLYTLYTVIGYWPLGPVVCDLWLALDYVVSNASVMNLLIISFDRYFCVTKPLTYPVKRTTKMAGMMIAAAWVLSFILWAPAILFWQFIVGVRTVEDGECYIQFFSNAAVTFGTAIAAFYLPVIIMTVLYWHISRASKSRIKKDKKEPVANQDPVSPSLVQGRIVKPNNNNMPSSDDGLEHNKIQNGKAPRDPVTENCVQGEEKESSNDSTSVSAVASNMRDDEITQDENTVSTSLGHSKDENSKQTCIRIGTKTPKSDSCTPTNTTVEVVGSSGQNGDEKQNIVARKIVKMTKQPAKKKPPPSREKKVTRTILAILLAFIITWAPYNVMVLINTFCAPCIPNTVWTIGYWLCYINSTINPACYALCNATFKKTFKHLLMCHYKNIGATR

[2] = molecular target: Phosphatidylinositol 4-phosphate 5-kinase type-1 gamma (Homo sapiens) (UniProt O60331); assay: Selectivity interaction (KinomeScan (DiscoverX)) EUB0000878a PIP5K1C; conditions: at 1 µM
[3] = molecular target: Muscarinic acetylcholine receptor M3 (Homo sapiens, UniProt P20309); assay: Selectivity interaction (Eurofins Cerep-Panlabs Safety Screen 44 (GPCRS, Transporters, Ion Channels, Nuclear Receptors, other enzymes)) EUB0000878a CHRM3; conditions: at 10 µM
[4] = molecular target: T2, Dual specificity mitogen-activated protein kinase kinase 5 (Homo sapiens) (UniProt Q13163); assay: Selectivity interaction (KinomeScan (DiscoverX)) EUB0000878a MAP2K5; conditions: at 1 µM
T2 sequence (whole entry): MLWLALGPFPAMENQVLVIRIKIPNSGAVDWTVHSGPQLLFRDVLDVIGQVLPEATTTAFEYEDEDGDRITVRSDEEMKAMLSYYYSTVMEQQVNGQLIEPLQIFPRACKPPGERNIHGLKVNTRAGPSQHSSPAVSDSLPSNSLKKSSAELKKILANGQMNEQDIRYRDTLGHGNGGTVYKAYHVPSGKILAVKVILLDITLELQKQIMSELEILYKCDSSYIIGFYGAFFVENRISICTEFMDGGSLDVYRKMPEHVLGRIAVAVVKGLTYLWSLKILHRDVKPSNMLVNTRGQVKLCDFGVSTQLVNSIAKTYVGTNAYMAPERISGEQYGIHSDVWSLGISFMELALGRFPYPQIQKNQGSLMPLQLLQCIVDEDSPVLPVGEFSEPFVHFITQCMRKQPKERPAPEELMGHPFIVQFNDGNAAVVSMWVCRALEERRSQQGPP

[5] = molecular target: Sodium-dependent dopamine transporter (Homo sapiens, UniProt Q01959); assay: Selectivity interaction (Eurofins Cerep-Panlabs Safety Screen 44 (GPCRS, Transporters, Ion Channels, Nuclear Receptors, other enzymes)) EUB0000878a SLC6A3; conditions: at 10 µM
[6] = molecular target: T3, Receptor-interacting serine/threonine-protein kinase 4 (Homo sapiens) (UniProt P57078); assay: Selectivity interaction (KinomeScan (DiscoverX)) EUB0000878a RIPK4; conditions: at 1 µM
T3 sequence (whole entry): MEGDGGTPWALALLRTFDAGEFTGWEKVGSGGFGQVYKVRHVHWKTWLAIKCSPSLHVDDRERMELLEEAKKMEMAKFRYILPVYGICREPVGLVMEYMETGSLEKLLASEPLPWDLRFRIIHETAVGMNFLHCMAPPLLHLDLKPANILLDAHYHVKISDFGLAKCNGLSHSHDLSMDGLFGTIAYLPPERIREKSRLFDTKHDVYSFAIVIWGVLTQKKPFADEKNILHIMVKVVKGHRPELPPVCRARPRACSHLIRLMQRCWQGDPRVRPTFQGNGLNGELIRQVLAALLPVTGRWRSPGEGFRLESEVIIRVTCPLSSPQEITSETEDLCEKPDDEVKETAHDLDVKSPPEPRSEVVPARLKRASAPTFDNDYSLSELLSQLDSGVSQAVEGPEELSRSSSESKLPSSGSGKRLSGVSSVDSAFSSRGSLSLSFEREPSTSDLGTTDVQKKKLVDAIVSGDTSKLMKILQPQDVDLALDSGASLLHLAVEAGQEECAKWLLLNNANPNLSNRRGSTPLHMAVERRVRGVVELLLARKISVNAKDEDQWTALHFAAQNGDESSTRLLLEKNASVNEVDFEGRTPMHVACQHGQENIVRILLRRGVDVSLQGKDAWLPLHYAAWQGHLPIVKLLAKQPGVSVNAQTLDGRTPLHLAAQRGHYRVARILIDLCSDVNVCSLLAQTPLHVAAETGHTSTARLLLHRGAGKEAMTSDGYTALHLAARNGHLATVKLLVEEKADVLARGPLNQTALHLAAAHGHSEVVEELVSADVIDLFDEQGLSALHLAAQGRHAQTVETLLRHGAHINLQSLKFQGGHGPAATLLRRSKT

[7] = molecular target: Sodium-dependent noradrenaline transporter (Homo sapiens, UniProt P23975); assay: Selectivity interaction (Eurofins Cerep-Panlabs Safety Screen 44 (GPCRS, Transporters, Ion Channels, Nuclear Receptors, other enzymes)) EUB0000878a SLC6A2; conditions: at 10 µM
[8] = molecular target: T4, Muscarinic acetylcholine receptor M1 (Homo sapiens) (UniProt P11229); assay: Selectivity interaction (Eurofins Cerep-Panlabs Safety Screen 44 (GPCRS, Transporters, Ion Channels, Nuclear Receptors, other enzymes)) EUB0000878a CHRM1; conditions: at 10 µM
T4 sequence (whole entry): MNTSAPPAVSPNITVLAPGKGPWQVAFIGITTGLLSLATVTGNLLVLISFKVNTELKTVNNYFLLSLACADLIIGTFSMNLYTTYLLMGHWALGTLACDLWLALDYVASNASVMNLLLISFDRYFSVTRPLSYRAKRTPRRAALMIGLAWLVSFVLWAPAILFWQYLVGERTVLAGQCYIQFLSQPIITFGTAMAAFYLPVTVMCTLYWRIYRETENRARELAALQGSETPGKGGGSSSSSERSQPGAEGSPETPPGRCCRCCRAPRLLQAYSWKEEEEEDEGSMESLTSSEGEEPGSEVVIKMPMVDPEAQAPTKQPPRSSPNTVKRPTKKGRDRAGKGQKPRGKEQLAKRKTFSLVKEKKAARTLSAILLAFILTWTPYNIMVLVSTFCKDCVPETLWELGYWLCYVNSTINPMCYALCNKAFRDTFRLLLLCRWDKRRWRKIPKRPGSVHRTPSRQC

[9] = molecular target: Mitogen-activated protein kinase kinase kinase 11 (Homo sapiens) (UniProt Q16584); assay: Selectivity interaction (KinomeScan (DiscoverX)) EUB0000878a MAP3K11; conditions: at 1 µM
[10] = molecular target: T5, 5-hydroxytryptamine receptor 2C (Homo sapiens) (UniProt P28335); assay: Selectivity interaction (GPCR panel (PDSP screen)) EUB0001066a HTR2C; conditions: at 10 µM
T5 sequence (whole entry): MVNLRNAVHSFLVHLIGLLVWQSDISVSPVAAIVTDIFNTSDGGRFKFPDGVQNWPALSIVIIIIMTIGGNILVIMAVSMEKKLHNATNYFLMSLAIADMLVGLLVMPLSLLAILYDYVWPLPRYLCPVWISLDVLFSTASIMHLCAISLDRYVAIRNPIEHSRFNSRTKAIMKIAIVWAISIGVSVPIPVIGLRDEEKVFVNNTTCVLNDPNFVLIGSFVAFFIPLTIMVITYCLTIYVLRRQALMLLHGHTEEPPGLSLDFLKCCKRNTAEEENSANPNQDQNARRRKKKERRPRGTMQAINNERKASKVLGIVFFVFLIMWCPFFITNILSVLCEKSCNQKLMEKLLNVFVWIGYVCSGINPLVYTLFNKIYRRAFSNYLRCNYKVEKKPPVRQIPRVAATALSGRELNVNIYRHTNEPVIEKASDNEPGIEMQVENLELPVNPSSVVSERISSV

[11] = molecular target: T6, Alpha-1B adrenergic receptor (Homo sapiens) (UniProt P35368); assay: Selectivity interaction (GPCR panel (PDSP screen)) EUB0001066a ADRA1B; conditions: at 10 µM
T6 sequence (whole entry): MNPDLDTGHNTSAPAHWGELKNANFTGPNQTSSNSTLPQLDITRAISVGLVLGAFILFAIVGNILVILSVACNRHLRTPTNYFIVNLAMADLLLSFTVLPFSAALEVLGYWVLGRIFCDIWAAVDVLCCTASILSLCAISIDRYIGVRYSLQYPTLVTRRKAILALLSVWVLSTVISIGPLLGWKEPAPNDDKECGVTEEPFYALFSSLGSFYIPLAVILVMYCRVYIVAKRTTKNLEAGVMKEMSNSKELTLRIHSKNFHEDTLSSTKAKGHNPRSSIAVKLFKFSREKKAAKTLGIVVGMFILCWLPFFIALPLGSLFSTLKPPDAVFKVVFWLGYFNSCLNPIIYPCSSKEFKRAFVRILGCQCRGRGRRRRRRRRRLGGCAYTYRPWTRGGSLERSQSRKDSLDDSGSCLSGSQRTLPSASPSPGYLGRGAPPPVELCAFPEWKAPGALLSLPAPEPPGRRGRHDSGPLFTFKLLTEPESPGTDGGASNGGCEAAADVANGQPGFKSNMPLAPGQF

[12] = molecular target: Serine/threonine-protein kinase VRK2 (Homo sapiens) (UniProt Q86Y07); assay: Selectivity interaction (KinomeScan (DiscoverX)) EUB0001066a VRK2; conditions: at 1 µM
[13] = test system: Mast/stem cell growth factor receptor Kit (Homo sapiens), P10721 [UNDEFINED MUTATION]; assay: Selectivity interaction (KinomeScan (DiscoverX)) EUB0001066a KIT; conditions: at 1 µM
[14] = molecular target: Serine/threonine-protein kinase pim-2 (Homo sapiens, UniProt Q9P1W9); assay: Selectivity interaction (KinomeScan (DiscoverX)) EUB0001066a PIM2; conditions: at 1 µM
[15] = molecular target: T7, Serine/threonine-protein kinase NLK (Homo sapiens) (UniProt Q9UBE8); assay: Selectivity interaction (KinomeScan (DiscoverX)) EUB0001066a NLK; conditions: at 1 µM
T7 sequence (whole entry): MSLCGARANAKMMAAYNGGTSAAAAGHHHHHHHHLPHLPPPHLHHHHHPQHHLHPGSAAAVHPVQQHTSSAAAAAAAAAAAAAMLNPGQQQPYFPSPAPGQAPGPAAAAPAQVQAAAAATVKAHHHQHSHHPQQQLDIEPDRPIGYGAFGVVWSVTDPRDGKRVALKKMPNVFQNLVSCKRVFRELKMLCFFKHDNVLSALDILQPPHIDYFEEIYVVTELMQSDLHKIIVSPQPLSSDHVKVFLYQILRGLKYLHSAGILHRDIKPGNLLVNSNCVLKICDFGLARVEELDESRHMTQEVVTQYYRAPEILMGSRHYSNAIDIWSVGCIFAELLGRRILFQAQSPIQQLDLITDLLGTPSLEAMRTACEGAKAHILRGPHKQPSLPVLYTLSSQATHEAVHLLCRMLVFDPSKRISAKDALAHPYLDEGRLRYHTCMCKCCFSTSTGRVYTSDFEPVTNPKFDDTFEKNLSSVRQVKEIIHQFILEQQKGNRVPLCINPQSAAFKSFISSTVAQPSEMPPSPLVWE

[16] = molecular target: 5-hydroxytryptamine receptor 1E (Homo sapiens) (UniProt P28566); assay: Selectivity interaction (GPCR panel (PDSP screen)) EUB0001066a HTR1E; conditions: at 10 µM
5-hydroxytryptamine receptor 1E (Homo sapiens), sequence (P28566 whole entry): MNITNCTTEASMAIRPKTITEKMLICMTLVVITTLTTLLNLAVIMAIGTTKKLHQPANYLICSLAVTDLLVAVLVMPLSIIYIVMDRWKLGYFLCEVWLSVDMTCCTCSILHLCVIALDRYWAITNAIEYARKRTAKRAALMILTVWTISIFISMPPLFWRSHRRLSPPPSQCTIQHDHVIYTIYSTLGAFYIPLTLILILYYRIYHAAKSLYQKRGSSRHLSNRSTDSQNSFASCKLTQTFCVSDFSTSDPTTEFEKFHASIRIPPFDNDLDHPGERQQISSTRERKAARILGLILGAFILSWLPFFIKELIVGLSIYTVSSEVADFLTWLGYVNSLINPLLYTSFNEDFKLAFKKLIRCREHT

Sodium-dependent noradrenaline transporter, sequence (P23975 whole entry): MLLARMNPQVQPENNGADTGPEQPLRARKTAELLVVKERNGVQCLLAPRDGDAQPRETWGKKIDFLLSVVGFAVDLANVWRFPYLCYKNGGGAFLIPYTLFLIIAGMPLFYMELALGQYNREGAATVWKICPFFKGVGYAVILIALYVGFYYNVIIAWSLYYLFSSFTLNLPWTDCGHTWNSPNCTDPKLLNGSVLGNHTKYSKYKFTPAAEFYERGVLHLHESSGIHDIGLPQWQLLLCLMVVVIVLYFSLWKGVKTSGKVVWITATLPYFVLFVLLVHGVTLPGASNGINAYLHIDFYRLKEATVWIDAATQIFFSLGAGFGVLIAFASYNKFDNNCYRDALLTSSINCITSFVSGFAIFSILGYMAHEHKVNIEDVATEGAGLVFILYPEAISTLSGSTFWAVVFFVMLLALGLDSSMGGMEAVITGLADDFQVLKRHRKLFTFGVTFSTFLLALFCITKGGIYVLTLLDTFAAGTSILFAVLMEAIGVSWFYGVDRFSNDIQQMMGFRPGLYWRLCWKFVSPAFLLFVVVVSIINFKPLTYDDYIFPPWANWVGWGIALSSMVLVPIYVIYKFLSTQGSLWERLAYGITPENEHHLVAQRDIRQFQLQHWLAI
Muscarinic acetylcholine receptor M3, sequence (P20309 whole entry, looked up): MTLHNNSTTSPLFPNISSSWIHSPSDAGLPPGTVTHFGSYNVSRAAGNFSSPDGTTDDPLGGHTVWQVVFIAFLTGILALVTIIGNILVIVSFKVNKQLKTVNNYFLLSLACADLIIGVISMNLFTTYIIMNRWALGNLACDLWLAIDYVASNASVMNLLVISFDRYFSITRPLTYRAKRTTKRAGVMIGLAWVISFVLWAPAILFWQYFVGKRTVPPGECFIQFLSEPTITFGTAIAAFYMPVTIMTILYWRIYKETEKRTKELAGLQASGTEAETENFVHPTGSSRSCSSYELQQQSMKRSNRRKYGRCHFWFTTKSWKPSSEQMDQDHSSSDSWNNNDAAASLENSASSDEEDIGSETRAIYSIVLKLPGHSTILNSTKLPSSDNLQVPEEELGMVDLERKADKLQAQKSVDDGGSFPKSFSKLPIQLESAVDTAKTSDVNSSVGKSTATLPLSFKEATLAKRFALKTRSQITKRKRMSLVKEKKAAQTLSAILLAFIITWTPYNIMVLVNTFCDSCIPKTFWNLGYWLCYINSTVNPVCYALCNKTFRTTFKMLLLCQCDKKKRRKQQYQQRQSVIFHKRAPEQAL
Mast/stem cell growth factor receptor Kit (Homo sapiens), P10721 [UNDEFINED MUTATION], sequence (P10721 whole entry, looked up, change not shown): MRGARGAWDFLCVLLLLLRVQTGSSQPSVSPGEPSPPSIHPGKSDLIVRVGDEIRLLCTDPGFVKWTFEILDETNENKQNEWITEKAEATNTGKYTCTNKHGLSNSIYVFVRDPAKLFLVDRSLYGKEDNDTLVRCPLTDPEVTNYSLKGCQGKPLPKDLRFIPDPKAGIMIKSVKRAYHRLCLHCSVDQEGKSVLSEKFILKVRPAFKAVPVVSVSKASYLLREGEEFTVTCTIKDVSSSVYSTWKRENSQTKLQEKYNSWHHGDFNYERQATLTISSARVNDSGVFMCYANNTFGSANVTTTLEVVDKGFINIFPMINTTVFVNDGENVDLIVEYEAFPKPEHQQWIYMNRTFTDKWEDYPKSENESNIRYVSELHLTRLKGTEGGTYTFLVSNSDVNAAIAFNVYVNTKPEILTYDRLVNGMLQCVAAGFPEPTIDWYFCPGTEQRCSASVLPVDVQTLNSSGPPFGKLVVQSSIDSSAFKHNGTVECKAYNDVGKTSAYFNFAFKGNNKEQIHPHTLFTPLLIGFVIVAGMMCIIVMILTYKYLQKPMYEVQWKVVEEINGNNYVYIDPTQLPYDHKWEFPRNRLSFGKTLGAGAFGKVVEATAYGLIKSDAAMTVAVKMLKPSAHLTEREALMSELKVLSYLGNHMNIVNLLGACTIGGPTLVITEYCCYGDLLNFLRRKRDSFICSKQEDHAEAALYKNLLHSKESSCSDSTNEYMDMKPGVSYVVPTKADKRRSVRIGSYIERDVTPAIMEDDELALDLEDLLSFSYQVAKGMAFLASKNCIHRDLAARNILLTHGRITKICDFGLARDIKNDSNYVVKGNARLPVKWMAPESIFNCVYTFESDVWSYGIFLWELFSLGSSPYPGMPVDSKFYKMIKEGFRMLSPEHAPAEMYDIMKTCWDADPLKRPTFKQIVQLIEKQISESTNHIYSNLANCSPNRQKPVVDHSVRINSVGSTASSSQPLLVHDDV
Sodium-dependent dopamine transporter, sequence (Q01959 whole entry): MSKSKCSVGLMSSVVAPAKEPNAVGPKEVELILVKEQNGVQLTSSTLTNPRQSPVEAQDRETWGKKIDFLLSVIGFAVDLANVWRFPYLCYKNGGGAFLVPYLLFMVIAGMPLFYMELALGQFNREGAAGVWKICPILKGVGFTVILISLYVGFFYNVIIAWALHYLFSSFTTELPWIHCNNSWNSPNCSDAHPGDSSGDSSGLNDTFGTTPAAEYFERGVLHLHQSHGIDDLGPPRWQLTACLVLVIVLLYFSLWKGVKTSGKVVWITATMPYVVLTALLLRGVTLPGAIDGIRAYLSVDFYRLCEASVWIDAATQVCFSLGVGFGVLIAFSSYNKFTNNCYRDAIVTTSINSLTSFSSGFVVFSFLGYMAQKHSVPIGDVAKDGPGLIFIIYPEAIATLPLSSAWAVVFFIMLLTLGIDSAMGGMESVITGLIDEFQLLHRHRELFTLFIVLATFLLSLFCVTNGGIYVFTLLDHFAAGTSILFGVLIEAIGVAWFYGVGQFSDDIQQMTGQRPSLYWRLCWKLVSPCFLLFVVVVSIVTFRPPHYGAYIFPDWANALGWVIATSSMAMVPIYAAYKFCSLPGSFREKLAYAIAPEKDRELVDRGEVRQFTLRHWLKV
Serine/threonine-protein kinase VRK2 (Homo sapiens), sequence (Q86Y07 whole entry): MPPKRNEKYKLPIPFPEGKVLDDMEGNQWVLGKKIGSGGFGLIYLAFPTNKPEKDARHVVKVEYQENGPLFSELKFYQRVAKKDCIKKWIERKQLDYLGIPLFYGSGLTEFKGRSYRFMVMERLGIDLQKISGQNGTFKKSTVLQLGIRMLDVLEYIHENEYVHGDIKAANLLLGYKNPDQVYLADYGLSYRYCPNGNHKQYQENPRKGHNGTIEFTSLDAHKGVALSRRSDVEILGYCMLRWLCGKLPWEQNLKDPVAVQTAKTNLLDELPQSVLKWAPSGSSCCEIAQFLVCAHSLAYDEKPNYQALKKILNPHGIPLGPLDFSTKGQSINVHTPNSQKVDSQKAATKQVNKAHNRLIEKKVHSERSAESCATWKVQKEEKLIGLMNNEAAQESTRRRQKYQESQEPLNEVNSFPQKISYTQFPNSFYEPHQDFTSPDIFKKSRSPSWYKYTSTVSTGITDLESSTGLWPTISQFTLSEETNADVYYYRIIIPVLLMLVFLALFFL
Mitogen-activated protein kinase kinase kinase 11 (Homo sapiens), sequence (Q16584 whole entry, looked up): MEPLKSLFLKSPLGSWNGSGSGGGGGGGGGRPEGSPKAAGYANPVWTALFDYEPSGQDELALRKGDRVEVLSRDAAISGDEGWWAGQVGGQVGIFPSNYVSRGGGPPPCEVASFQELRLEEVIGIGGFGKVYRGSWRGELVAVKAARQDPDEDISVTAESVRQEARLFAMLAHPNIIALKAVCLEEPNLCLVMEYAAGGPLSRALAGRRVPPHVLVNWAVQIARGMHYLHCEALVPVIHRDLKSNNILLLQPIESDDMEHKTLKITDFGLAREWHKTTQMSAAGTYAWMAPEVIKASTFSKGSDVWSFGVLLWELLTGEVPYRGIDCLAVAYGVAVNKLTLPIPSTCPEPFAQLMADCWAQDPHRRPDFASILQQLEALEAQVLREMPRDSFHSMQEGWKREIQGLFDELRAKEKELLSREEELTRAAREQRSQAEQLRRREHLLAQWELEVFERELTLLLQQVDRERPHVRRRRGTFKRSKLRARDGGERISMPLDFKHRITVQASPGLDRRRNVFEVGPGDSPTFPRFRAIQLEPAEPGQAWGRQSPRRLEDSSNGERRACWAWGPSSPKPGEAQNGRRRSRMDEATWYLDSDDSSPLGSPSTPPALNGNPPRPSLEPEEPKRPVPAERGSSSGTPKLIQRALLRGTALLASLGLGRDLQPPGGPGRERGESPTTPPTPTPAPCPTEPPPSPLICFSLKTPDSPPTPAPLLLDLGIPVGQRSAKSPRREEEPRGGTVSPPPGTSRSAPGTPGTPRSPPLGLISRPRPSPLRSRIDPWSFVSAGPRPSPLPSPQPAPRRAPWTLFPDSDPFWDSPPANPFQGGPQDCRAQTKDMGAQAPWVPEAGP
Serine/threonine-protein kinase pim-2, sequence (Q9P1W9 whole entry, looked up): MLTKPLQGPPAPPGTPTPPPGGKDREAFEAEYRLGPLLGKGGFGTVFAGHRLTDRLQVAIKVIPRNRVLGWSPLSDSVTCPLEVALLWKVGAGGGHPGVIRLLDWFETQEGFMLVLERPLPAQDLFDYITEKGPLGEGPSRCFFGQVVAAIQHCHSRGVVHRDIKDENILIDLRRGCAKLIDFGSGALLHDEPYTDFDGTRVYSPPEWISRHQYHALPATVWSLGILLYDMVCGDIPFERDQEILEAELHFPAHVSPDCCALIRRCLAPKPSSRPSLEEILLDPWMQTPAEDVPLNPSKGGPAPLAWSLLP

SMILES | % of inhibition or stimulation [1] [%] | % of control [2] [%] | % of inhibition or stimulation [3] [%] | % of control [4] [%] | % of inhibition or stimulation [5] [%] | % of control [6] [%] | % of inhibition or stimulation [7] [%] | % of inhibition or stimulation [8] [%] | % of control [9] [%] | % of inhibition [10] [%] | % of inhibition [11] [%] | % of control [12] [%] | % of control [13] [%] | % of control [14] [%] | % of control [15] [%] | % of inhibition [16] [%]
CC(C)c1cc(Nc2nc(N3CCC[C@H](N)C3)ncc2C(N)=O)cc(C(C)C)n1 | 70 | 0 | 84 | 4.5 | 100 | 0.95 | 87 | 84 | 99 | – | – | – | – | – | – | –
Cc1nccc(COC(=O)N2C[C@@H]3[C@@H](CNC(=O)c4ccc5[nH]nnc5c4)[C@@H]3C2)n1 | – | – | – | – | – | – | – | – | – | 31.1 | 30.2 | 29 | 41 | 0 | 41 | 31.8
